According to the supplement of paper PMC10307832:

Compound: CS(=O)(=O)CCNCc1ccc(-c2ccc3ncnc(Nc4ccc(OCc5cccc(F)c5)c(Cl)c4)c3c2)o1 [Lapatinib]
Assay: relative viability (nuclei count vs DMSO), 5 days (fraction); higher = more cells survive
Summary of the method: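 After an overnight hold at 37 °C, lung cancer cell lines in 1536-well plates were pinned with five library-drug doses (not always all listed), each √10 from the next, on vehicle-anchored plates. The cells stayed 5 days without fresh medium, then a one-step fix, permeabilisation and Hoechst stain preceded 4× imaging and MetaXpress nuclear counts. A plate passed only with control CV under 25% and at least one doubling. Viability is the median, over plates, of treated-well nuclei relative to vehicle-well nuclei.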

Row | Cell Line | relative viability (0.06325 µM) | relative viability (0.2 µM) | relative viability (0.6325 µM) | relative viability (2 µM) | relative viability (2 µM, anchor plate) | relative viability (0.02 µM)
1 | NCI-H522 | 0.746 | 0.855 | 1.01 | 0.791 | – | –
2 | NCI-H650 | 0.912 | 0.919 | 1.04 | 0.831 | 0.926 | –
3 | NCI-H460 | 0.984 | 0.969 | 0.969 | 0.868 | 0.988 | 0.952
4 | HCC-827 | 0.983 | 1.05 | 1 | – | – | 0.91
5 | NCI-H647 | 0.897 | 0.767 | 1.02 | 0.806 | 1.06 | 0.776
6 | SW 1573 | 0.896 | 0.992 | 1.06 | 0.896 | 1.12 | 0.952
7 | NCI-H2170 | 0.913 | 0.762 | 0.72 | 0.332 | 0.276 | 0.953
8 | NCI-H358 | 0.478 | 0.611 | 0.569 | 0.335 | 0.474 | 0.693
9 | COR-L 105 | 0.8 | 0.857 | 0.598 | 0.381 | 0.367 | 0.828
10 | PC-3 [JPC-3] | 1 | 0.991 | 0.977 | 0.755 | 0.46 | –
11 | NCI-H1993 | – | 0.928 | 0.873 | 0.745 | 0.837 | 0.903
12 | NCI-H1734 | 0.794 | 1.01 | 1.07 | 0.943 | 1.07 | –
13 | ChaGo-K-1 | 0.943 | 0.945 | 1 | 0.797 | – | 0.789
14 | LU99A | 0.757 | 0.852 | 0.871 | 0.897 | 1.03 | 0.883
15 | ABC-1 | 0.793 | 0.939 | 1.04 | 0.912 | 1.18 | 0.721
16 | HCC-44 | 0.997 | 0.983 | 1.03 | 0.893 | 1.02 | 0.602
17 | NCI-H1650 | 0.73 | 0.851 | 0.834 | 0.737 | 0.805 | 0.809
18 | NCI-H596 | 0.939 | 0.967 | 1.14 | 0.919 | 1.03 | –
19 | NCI-H1915 | 0.975 | 1 | 0.999 | 0.977 | 0.996 | –
20 | NCI-H1395 | 0.896 | 1.02 | 0.919 | 0.742 | 1.05 | –
21 | CAL-12T | 0.978 | 0.909 | 0.776 | 0.678 | 0.681 | 0.763
22 | SW 900 | 0.765 | 0.958 | 0.836 | 0.712 | – | –
23 | NCI-H2342 | 0.825 | 0.798 | 0.86 | 0.856 | – | 0.742
24 | NCI-H1299 | 1.02 | 1 | 0.99 | 1.01 | 0.95 | 0.985
25 | HARA | 0.749 | 0.943 | 0.93 | 0.755 | 0.77 | 0.52
26 | H3255 | 0.936 | 0.938 | 0.889 | 0.489 | 0.25 | 0.908
27 | NCI-H1792 | – | 0.928 | 1 | 0.762 | 0.919 | –

Row | Cell Line | relative viability (0.06325 µM) | relative viability (0.2 µM) | relative viability (0.6325 µM) | relative viability (2 µM) | relative viability (2 µM, anchor plate) | relative viability (0.02 µM)
28 | NCI-H2023 | 0.744 | 0.926 | 0.998 | 0.823 | 0.862 | 0.796
29 | HCC-78 | 0.734 | 0.922 | 0.935 | 0.793 | 0.801 | –
30 | NCI-H1623 | 0.649 | 0.576 | 0.728 | 0.328 | – | 0.856
31 | HOP-62 | 1.04 | 1.01 | 1.02 | 1.01 | 1.04 | 0.7
32 | NCI-H1755 | 0.914 | 0.936 | 0.967 | 0.981 | 1.03 | 1.01
33 | NCI-H1651 | 0.811 | 0.994 | 0.926 | 0.989 | 0.827 | 0.942
34 | SK-MES-1 | 0.902 | 0.886 | 0.776 | 0.462 | 0.497 | 0.94
35 | NCI-H2085 | 0.854 | 0.958 | 0.937 | 0.859 | 0.773 | 0.83
36 | EKVX | 0.755 | 0.943 | 0.811 | 0.336 | 0.216 | 0.645
37 | NCI-H1437 | 0.988 | 0.987 | 0.914 | 0.918 | 0.794 | 0.919
38 | BEN | 0.907 | 0.935 | 1 | 0.962 | 0.74 | 0.793
39 | NCI-H1666 | 0.871 | 0.89 | 0.862 | 0.708 | 0.702 | 0.936
40 | LCLC-103H | 0.951 | 0.997 | 1.02 | 0.975 | – | 0.779
41 | NCI-H2009 | 0.978 | 1.02 | 1.01 | 1 | 0.84 | 1.01
42 | Calu-6 | 0.971 | 1.02 | 1.03 | 0.926 | 1.04 | 0.972
43 | LOU-NH91 | 0.785 | 0.844 | 0.844 | 0.74 | 0.799 | 0.569
44 | NCI-H441 | 0.735 | 0.995 | 1.09 | 1.36 | – | –
45 | NCI-H661 | 0.919 | 0.957 | 0.822 | 0.705 | 0.52 | 0.987
46 | NCI-H1355 | 0.828 | 0.938 | 0.972 | 0.746 | 1 | –
47 | HCC-366 | 1.02 | 0.981 | 1.02 | 0.99 | 1.02 | –
48 | A549 | 0.875 | 0.867 | 0.957 | 0.861 | 0.993 | 0.982
49 | LK-2 | – | 0.914 | 1.13 | 1.11 | 1.02 | 0.852
50 | COR-L23 | 1 | 1.11 | 0.919 | 1.02 | 0.934 | 0.978
51 | PC-14 | 0.954 | 0.965 | 0.958 | 0.644 | 0.343 | 0.914
52 | NCI-H1703 | 0.895 | 0.944 | 1.01 | 0.825 | 1.05 | 0.907
53 | NCI-H2087 | 0.833 | 1.12 | 0.952 | 0.975 | 0.983 | 0.786
54 | HCC-15 | 0.847 | 1.06 | 1.01 | 0.919 | 0.836 | –

Row | Cell Line | relative viability (0.06325 µM) | relative viability (0.2 µM) | relative viability (0.6325 µM) | relative viability (2 µM) | relative viability (2 µM, anchor plate) | relative viability (0.02 µM)
55 | NCI-H2228 | 0.857 | 0.823 | 1.04 | 0.863 | 1.14 | 0.902
56 | NCI-H2126 | 0.765 | 0.946 | 0.994 | 0.927 | 0.759 | –
57 | EMC-BAC-2 | 0.8 | 0.734 | 0.985 | 1.04 | 0.917 | –
58 | NCI-H520 | 0.93 | 1.03 | 1.09 | 0.998 | 0.848 | 0.987
59 | LXF-289 | 0.993 | 0.96 | 0.957 | 0.869 | 0.915 | 0.923
60 | EPLC-272H | 0.733 | 0.959 | 1 | 0.783 | 0.993 | –
61 | NCI-H838 | 0.82 | 0.97 | 0.947 | 0.897 | 0.992 | 0.954
62 | NCI-H2405 | 0.83 | 0.971 | 1.01 | 0.905 | 1.04 | 0.674
63 | LC-2-ad | 0.895 | 0.984 | 0.983 | 0.896 | 0.967 | –
64 | NCI-H3122 | 0.981 | 0.992 | 0.965 | 1 | 1.03 | 0.912
65 | NCI-H727 | – | 1.11 | 0.778 | 0.776 | 0.796 | 0.839
66 | A-427 | 0.978 | 1 | 0.954 | 0.963 | 1.05 | –
67 | 201T | 0.802 | 0.963 | 0.979 | 0.887 | 1.04 | 0.713
68 | NCI-H1563 | 0.832 | 0.936 | 0.909 | 0.88 | 0.977 | 1.04
69 | NCI-H1944 | 0.658 | 0.964 | 0.853 | 0.757 | 0.846 | 0.781
70 | SK-LU-1 | 0.89 | 1.01 | 1.11 | 1.03 | 0.85 | 0.799
71 | IA-LM | 0.977 | 1.04 | 0.902 | 0.983 | 0.848 | 0.816
72 | NCI-H1975 | 0.8 | 0.904 | 0.936 | 0.77 | 0.946 | 0.968
73 | NCI-H322M | 0.717 | 0.896 | 0.882 | 0.733 | 0.598 | 0.886
74 | NCI-H1793 | 0.642 | 0.732 | 0.803 | 0.544 | 0.714 | –
75 | RERF-LC-KJ | 0.88 | 0.905 | 0.826 | 0.737 | 0.861 | 0.992
76 | NCI-H23 | – | 1.02 | 1.06 | 0.938 | 1.11 | –
77 | EBC-1 | 0.979 | 0.945 | 0.971 | – | – | 0.993
78 | NCI-H1648 | 0.667 | 0.548 | 0.625 | 0.392 | – | 0.671
79 | NCI-H2347 | 0.999 | 0.943 | 1.05 | 0.904 | 0.905 | 0.7
80 | LCLC-97TM1 | – | 1.08 | 1 | 1.03 | 1.01 | –
